{
  "source": "patent US20210037856A1",
  "about": "“Ruminant Feed Composition Comprising A Muramidase” (Novozymes A/S, priority 2018, published 2021)",
  "key": {"rumen fluid [1]": {"test_system": "rumen fluid", "experiment": "in vitro ruminal fermentation, 22 muramidases, 12 h (Example 4)", "set-up": "species or system cow; DMd: unit not given here", "conditions": "PC (Monensin) 0.01 or 0.10 mg/40 ml, not stated which", "experimental": "(§1) The trial was performed by Alimetrics (Alimetrics Ltd, Koskelontie 19B, FIN-02920 Espoo, Finland) using 120 mL serum bottles as fermentation vessels. The fermentation preparation and procedure is presented in Kettunen et al., (Kettunen H., J. Vuorenmaa, D. Gaffney and J. Apajalahti (2016): Yeast hydrolysate product enhances ruminal fermentation in vitro. J. App. Anim. Nutr., Vol. 4; e1; page 1 of 7). In short, the method is as follows: All bottles were initially filled with 1 g of feed DM composed from corn silage, barley meal, soybean meal, at the amounts of 0.5, 0.4, and 0.1 g DM, respectively. Subsequently, the bottles were flushed with CO2 passed through a hot copper catalyst for O2 scavenging and sealed with thick butyl rubber stopper. Anaerobic, reduced and temperature adjusted (+38° C.) artificial saliva buffer solution (Modified from Agriculture Handbook No. 379, (USDA, Washington, D.C., 1975), volume of 37.65 ml), freshly strained rumen fluid (5% inoculum; volume of 2 ml), and test compounds (volume of 0.35 ml) was introduced into the fermentation vessels under the oxygen-free CO2 flow. Following rumen fluid was collected from a ruminal cannulated cow. Rumen fluid was pumped directly from the rumen into a preheated thermos and immediately closed, and transported to Alimetrics laboratory. The rumen fluid was used for inoculation within 2 hours of harvest. To ensure that both liquid and particle associated ruminal microbes were present in the inoculum both fractions were obtained. Liquid and solid fractions were strained through a metal mesh (grid size 3×3 mm) under anaerobic conditions prior to buffer dilution.\n(§2) Following inoculation with rumen fluid, buffer and test solution, the vessels were sealed with the butyl rubber septum's. All fermentation vessels were inoculated in random order to prevent the possible block effects. Inoculation time for each fermentation vessel was registered and was taken into account op on each sampling to ensure that duration of the fermentation was the same for each sample. The fermentation was continued for 12 h in a gyratory shaker at +38° C. Fermentation gas produced was measured and relived by collection of the fermentation gas in syringes at time 3, 6, 9, and 12 h. Feed residues were measured after 12 h fermentation.\nThe trial design was a dosage response, complete randomized design with 27 treatments using 145 fermentation vessels according to table 5. […] Negative control was supplemented with the same buffer solution that was used for diluting the enzymes to reach the same liquid volume as the supplemented fermentation vessels. The ionophore Monensin (Monensin sodium salt, 90-95% TLC (Sigma Aldrich; Product code: M5273-1G)) was chosen as a positive control because it is a ruminants feed additive that affects volatile fatty acids (VFA) production.\n(§3) Liquid Samples Obtained at 12 h were Analyzed for the Concentration of VFA (Acetate, Propionate, butyrate, and valerate) by GC-FID using a glass column packed with 80/120 carbopack B-DA/4% Carbowax stationary and helium as a carrier gas (Kettunen H., J. Vuorenmaa, T. Rinttilä, H. Grönberg, E. Valkonen and J. Apajalahti (2015): Natural resin acid-enriched composition as a modulator of intestinal microbiota and performance enhancer in broiler chicken. J. App. Anim. Nutr., Vol. 3; e2; page 1 of 9).\n(§4) Digestibility of dry matter was quantified by determination of dry matter in the original feed matrix and in all fermentation vessels after 12 h of fermentation. Feed residues from the fermentation vessels were obtained by filtration tared sintered glass filters, washed with water and dried at 105° C. for 12 hours. Finally, the glass filters are weighed for the residual feed dry matter.\n(§5) Dry matter digestibility (DMd) was calculated at the ratio between feed residues after end fermentation and the dry matter fed. […]"}, "rumen fluid [2]": {"test_system": "rumen fluid", "experiment": "in vitro ruminal fermentation, 13 muramidases, 12 h (Example 3)", "set-up": "species or system cow", "conditions": "PC at dosage 0.01 mg/40 mL", "experimental": "as §1, with “collection” for “was collected”\nas §2, with “solution” for “solution,”\nThe trial design was a dosage response, complete randomized design with 28 treatments using 150 fermentation vessels according to table 3. The 13 muramidase solutions were diluted to the concentration needed in enzyme buffer (BSA, Tween 20, acetate-buffer, Calcium, NaOH, adjusted to pH 6). Negative control was supplemented with the same buffer solution that was used for diluting the enzymes to reach the same liquid volume as the supplemented fermentation vessels. The ionophore Monensin (Monensin sodium salt, 90-95% TLC (Sigma Aldrich; Product code: M5273-1G)) was chosen as a positive control because it is a ruminants feed additive that affects volatile fatty acids (VFA) production.\nas §3, with “samples obtained” for “Samples Obtained”, “analyzed” for “Analyzed”, “concentration” for “Concentration”, “(acetate, propionate,” for “(Acetate, Propionate,”\nas §4, §5"}, "Staphylococcus aureus": {"test_system": "Staphylococcus aureus", "conditions": "does not cleave N,6-O-diacetylmuramic acid in cell walls; Masschalck et al. 2002; cited from earlier work"}, "[3]": {"conditions": "dry matter digestibility after 12 h"}, "[4]": {"conditions": "summed carbon in VFA after 12 h"}},
  "note": "Counter-ions that a name gives are not always drawn.",
  "data": [
    {"molecule": "CC[C@@]1([C@@H]2O[C@@H]([C@H]3O[C@@](O)(CO)[C@H](C)C[C@@H]3C)C[C@@H]2C)CC[C@H]([C@]2(C)CC[C@]3(C[C@H](O)[C@@H](C)[C@@H]([C@@H](C)[C@@H](OC)[C@H](C)C(=O)O)O3)O2)O1", "note": "[PC, Monensin sodium salt, reference compound]", "values": [
      {"measurement": "Acetate", "setting": "rumen fluid [1]; VFA production after 12 h", "result": 44.2, "unit": "mmol/L"},
      {"measurement": "Butyrate", "setting": "rumen fluid [1]; VFA production after 12 h", "result": 3.7, "unit": "mmol/L"},
      {"measurement": "Propionate", "setting": "rumen fluid [1]; VFA production after 12 h", "result": 42.8, "unit": "mmol/L"},
      {"measurement": "DMd", "setting": "rumen fluid [1]; [3]", "result": 0.51},
      {"measurement": "Total VFA", "setting": "rumen fluid [1]; sum of VFA after 12 h", "result": 91, "unit": "mmol/L"},
      {"measurement": "Carbon in VFA", "setting": "rumen fluid [1]; [4]", "result": 234, "unit": "mmol/L"},
      {"measurement": "Acetate", "setting": "rumen fluid [2]; VFA production after 12 h", "result": 47.5, "unit": "mmol/L"},
      {"measurement": "Butyrate", "setting": "rumen fluid [2]; VFA production after 12 h", "result": 3.86, "unit": "mmol/L"},
      {"measurement": "Propionate", "setting": "rumen fluid [2]; VFA production after 12 h", "result": 46.4, "unit": "mmol/L"},
      {"measurement": "DMd", "setting": "rumen fluid [2]; [3]", "result": 0.55},
      {"measurement": "Total VFA", "setting": "rumen fluid [2]; sum of VFA after 12 h", "result": 98, "unit": "mmol/L"},
      {"measurement": "Carbon in VFA", "setting": "rumen fluid [2]; [4]", "result": 251, "unit": "mmol/L"}
    ]},
    {"molecule": "Muramidase extracted from hen egg white: GH22 muramidase from hen egg white, primary product available on the commercial market", "values": [
      {"measurement": "lysis of Staphylococcus aureus", "setting": "Staphylococcus aureus", "result": "unable to lyse"}
    ]}
  ]
}
